We go through 17 molecules from US9562035B2, “Benzamide derivative useful as FASN inhibitors for the treatment of cancer” (Janssen Pharmaceutica NV, priority 2013, dated 2017).

The target in assay [1] is T1, hFASN enzyme (full length) (Homo sapiens, UniProt P49327).
T1 construct: 10 μL hFASN enzyme (full length, 300 ng, purified in house); made in house
Put plainly: Fatty Acid Synthase (FASN) Inhibition Scintillation Proximity Assay. Type of assay: biochemical. Particulars: for IC50: mean where tested more than once, ~ = standard error of pIC50 larger than 0.5; for inhibition at 10 µM: read-out: FASN % Effect @1E−05M. A digest of the protocol:
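Eight compound concentrations (0.01–30 μM) tested in pH 7.5 phosphate buffer with DTT; human full-length enzyme converted [3H]-acetyl-CoA plus malonyl-CoA, with NADPH, over 60 min at room temperature. Hydrophobic [3H]-palmitate detected by bead proximity scintillation imaging; control-normalised data fitted for IC50/pIC50.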

For assay [2], the target named is T2, FASN Keto-reductase Domain (Homo sapiens, UniProt P49327).
T2 construct: 10 μL hFASN enzyme (full length, 300 ng, purified in house) and 360 μM NADPH; made in house
Kind of assay: Fatty Acid Synthase Keto-Reductase Domain (FASN KR) Inhibition. Type of assay: biochemical. The settings on record: mean where tested more than once; read-out: FASN K-R Domain pIC50 (converted). A digest of the protocol: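 Keto-reductase activity followed as NADPH consumption (A340 drop between 0 and 20 min, room temperature) using in-house full-length hFASN, 360 μM NADPH and ethyl acetoacetate substrate (180 mM stock), pH 7.5 phosphate buffer.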

Assay [3] relates to A2780 ovarian cells. Kind of assay: A2780 Ovarian Cell Proliferation Assay in Lipid Reduced Medium, without Palmitate. It counts as cell-based. Particulars: Homo sapiens, A2780; lipid reduced medium, without palmitate, 96 h, MTT; read-out: Proliferation A2780 w/o Palmitate pIC50 (converted). Summed up: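 A2780 cells were seeded in 10% FCS medium and switched next day to 10% lipid-reduced serum without palmitate. Compounds at 0.01–30 μM were added with 0.2% DMSO, 0.2% fatty-acid-free BSA and 0.25% ethanol final. After 96 h, MTT absorbance at 544 nm was normalized to plate controls, and IC50/pIC50 came from a 4-parameter logistic fit.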

The subject of assay [4] is A2780 ovarian cells. Put plainly: A2780 Ovarian Cell Proliferation Assay in Lipid Reduced Medium, with Palmitate (control). It counts as cell-based. The settings on record: Homo sapiens, A2780; lipid reduced medium, 25 μM palmitate, 96 h, MTT; read-out: Proliferation A2780 with Palmitate pIC50 (converted). A digest of the protocol: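 Read-out was MTT absorbance at 544 nm after 96 h at 37 °C. Cells grown overnight in RPMI1640/10% FCS were moved to 10% lipid-reduced serum with compound plus palmitate (final 25 μM, 0.2% fatty-acid-free BSA, 0.2% DMSO). IC50 came from least-squares curve fitting, expressed as −log(IC50).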

A value given as a limit tells only on which side of the number the result lay.

T1 sequence (P49327 whole entry): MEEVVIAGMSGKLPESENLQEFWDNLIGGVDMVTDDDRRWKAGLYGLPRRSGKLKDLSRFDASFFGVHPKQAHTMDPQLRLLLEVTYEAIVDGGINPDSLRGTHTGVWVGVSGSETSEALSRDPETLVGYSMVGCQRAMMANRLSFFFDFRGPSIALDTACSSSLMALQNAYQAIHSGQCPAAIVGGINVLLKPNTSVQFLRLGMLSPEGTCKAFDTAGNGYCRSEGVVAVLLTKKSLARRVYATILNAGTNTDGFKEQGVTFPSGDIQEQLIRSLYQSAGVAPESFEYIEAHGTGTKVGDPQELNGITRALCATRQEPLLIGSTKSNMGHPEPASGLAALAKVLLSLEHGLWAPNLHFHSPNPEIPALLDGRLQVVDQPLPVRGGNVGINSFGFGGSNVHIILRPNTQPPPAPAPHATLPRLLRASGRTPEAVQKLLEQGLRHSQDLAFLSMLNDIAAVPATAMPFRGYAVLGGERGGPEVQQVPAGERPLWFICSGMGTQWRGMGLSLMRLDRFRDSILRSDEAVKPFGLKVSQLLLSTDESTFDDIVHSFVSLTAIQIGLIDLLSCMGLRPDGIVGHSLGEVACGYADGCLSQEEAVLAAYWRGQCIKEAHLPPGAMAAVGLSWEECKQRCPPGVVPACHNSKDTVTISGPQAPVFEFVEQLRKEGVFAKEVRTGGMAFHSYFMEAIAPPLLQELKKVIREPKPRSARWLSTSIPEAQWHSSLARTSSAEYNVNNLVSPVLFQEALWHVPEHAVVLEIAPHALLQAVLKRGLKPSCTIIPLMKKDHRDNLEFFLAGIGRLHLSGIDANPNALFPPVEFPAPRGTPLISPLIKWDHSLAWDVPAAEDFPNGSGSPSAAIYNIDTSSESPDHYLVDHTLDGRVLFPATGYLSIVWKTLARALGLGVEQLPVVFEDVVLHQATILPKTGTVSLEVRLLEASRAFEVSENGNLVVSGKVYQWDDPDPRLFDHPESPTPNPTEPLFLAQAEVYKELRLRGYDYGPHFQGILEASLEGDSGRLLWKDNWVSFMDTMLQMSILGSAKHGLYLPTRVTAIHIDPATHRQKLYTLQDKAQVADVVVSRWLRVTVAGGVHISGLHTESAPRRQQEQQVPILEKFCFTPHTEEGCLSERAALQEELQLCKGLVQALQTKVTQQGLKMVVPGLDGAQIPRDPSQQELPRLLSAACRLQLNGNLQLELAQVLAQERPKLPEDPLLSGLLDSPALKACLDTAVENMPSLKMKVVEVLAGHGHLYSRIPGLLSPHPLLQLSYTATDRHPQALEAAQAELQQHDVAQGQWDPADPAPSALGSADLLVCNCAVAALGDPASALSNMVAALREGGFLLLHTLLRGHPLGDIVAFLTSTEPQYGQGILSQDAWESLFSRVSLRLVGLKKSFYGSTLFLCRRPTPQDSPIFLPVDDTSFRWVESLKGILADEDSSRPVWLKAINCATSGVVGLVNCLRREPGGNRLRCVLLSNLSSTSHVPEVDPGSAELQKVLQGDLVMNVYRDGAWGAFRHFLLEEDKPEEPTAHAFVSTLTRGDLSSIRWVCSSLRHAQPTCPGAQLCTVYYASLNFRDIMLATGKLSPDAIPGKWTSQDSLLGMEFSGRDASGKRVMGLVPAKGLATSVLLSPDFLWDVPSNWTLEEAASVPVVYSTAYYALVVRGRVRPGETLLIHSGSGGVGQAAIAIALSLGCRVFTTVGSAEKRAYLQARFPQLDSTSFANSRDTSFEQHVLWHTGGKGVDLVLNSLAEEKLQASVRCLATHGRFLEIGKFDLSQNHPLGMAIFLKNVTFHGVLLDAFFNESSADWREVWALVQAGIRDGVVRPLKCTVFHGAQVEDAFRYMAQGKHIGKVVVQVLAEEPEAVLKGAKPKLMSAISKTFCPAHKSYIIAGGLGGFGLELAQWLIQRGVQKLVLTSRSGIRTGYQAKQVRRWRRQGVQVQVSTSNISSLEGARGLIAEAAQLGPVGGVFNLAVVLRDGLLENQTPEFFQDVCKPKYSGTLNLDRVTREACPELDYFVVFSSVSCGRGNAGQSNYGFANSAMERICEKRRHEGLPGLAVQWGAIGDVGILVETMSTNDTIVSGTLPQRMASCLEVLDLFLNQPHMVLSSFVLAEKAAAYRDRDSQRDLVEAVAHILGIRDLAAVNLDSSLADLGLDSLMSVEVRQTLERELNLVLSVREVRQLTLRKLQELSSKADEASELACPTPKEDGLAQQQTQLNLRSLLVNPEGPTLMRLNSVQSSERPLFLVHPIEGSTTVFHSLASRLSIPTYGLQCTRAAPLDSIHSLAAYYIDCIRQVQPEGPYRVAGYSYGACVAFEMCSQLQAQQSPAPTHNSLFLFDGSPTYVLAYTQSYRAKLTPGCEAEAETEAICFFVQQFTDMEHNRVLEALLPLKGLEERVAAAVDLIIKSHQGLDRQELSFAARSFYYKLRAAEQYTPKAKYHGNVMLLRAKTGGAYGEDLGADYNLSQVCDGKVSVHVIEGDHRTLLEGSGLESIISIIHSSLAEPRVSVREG
T2 sequence (P49327 whole entry, the tested form may be a part): as the sequence (P49327 whole entry) above

In the case of `Cc1ccc(C(=O)N2CCC(c3ccc(-c4cnn(C)c4)cc3)CC2)cc1NC(=O)c1cnc(N2CCOCC2)nc1` [Compound 152, N-(2-methyl-5-(4-(4-(1-methyl-1H-pyrazol-4-yl)phenyl)piperidine-1-carbonyl)phenyl)-2-morpholinopyrimidine-5-carboxamide], the IC50 is 21.9 nM in assay [1], 17.4 nM in assay [2], 12.3 nM in the assay with A2780 ovarian cells [3] and 7240 nM in the assay with A2780 ovarian cells [4]. The inhibition at 10 µM in assay [1] was 106%.
The like results for `CCC(CC)C(=O)Nc1cc(C(=O)N2CC(c3ccc(-c4cnn(C)c4)cc3)C2)ccc1C` [Compound 153, 2-ethyl-N-(2-methyl-5-(3-(4-(1-methyl-1H-pyrazol-4-yl)phenyl)azetidine-1-carbonyl)phenyl)butanamide] were, in that order, 30.2 nM, 61.7 nM, 38 nM, 4680 nM and 102%.
On the same counts, the results for `Cc1ccc(C(=O)N2CC(c3ccc(-c4cnn(C)c4)cc3)C2)cc1NC(=O)c1cnc(Cl)nc1` [Compound 154, 2-chloro-N-(2-methyl-5-(3-(4-(1-methyl-1H-pyrazol-4-yl)phenyl)azetidine-1-carbonyl)phenyl)pyrimidine-5-carboxamide] are 26.9 nM, 105 nM, 1350 nM, 4070 nM and 108%.
The like results for `COc1ccc(C(=O)Nc2cc(C(=O)N3CCC(c4ccc(-c5cnn(C)c5)cc4)CC3)ccc2C)cc1Cl` [Compound 155, 3-chloro-4-methoxy-N-(2-methyl-5-(4-(4-(1-methyl-1H-pyrazol-4-yl)phenyl)piperidine-1-carbonyl)phenyl)benzamide] were, in that order, 47.9 nM, 93.3 nM, 85.1 nM, > 10000 nM and 98%.
For `Cc1ccc(C(=O)N2CCC(c3ccc(-c4cnn(C)c4)cc3)CC2)cc1NC(=O)C(C)C` [Compound 156, N-(2-methyl-5-(4-(4-(1-methyl-1H-pyrazol-4-yl)phenyl)piperidine-1-carbonyl)phenyl)isobutyramide], the IC50 in assay [1] is 107 nM; in assay [2], 263 nM; in the assay with A2780 ovarian cells [3], 275 nM; in the assay with A2780 ovarian cells [4] it was > 10000 nM. Further, the inhibition at 10 µM in assay [1] came out at 100%.
With `Cc1ccc(C(=O)Nc2cc(C(=O)N3CCC(c4ccc(-c5cnn(C)c5)cc4)CC3)ccc2C)s1` [Compound 157, 5-methyl-N-(2-methyl-5-(4-(4-(1-methyl-1H-pyrazol-4-yl)phenyl)piperidine-1-carbonyl)phenyl)thiophene-2-carboxamide], the IC50 in assay [1] is 42.7 nM; in assay [2] it was 120 nM; with A2780 ovarian cells [3], 115 nM; in the assay with A2780 ovarian cells [4], > 10000 nM. Also, the inhibition at 10 µM in assay [1] was 104%.
On the same counts, the results for `Cc1ccc(C(=O)N2CC(c3ccc(-c4cnn(C)c4)cc3)C2)cc1NC(=O)c1cnc(NC(C)C)nc1` [Compound 158, 2-(isopropylamino)-N-(2-methyl-5-(3-(4-(1-methyl-1H-pyrazol-4-yl)phenyl)azetidine-1-carbonyl)phenyl)pyrimidine-5-carboxamide] are 23.4 nM, 37.2 nM, 10 nM, > 10000 nM and 102%.
Take `Cc1ccc(C(=O)N2CC(c3ccc(-c4cnn(C)c4)cc3)C2)cc1NC(=O)c1cnc(N2CCOCC2)nc1` [Compound 159, N-(2-methyl-5-(3-(4-(1-methyl-1H-pyrazol-4-yl)phenyl)azetidine-1-carbonyl)phenyl)-2-morpholinopyrimidine-5-carboxamide]: the IC50 was 22.9 nM in assay [1], 33.9 nM in assay [2], ~5.75 nM in the assay on A2780 ovarian cells [3] and > 10000 nM in the assay on A2780 ovarian cells [4]. Further, in assay [1], the inhibition at 10 µM came to 104%.
`Cc1ccc(C(=O)N2CCC(c3ccc(-c4cnn(C)c4)cc3)CC2)cc1NC(=O)c1ccc2[nH]ccc2c1` [Compound 160, N-(2-methyl-5-(4-(4-(1-methyl-1H-pyrazol-4-yl)phenyl)piperidine-1-carbonyl)phenyl)-1H-indole-5-carboxamide]: the IC50 in assay [1] was 40.7 nM; in assay [2] it was 91.2 nM; in the assay with A2780 ovarian cells [3], 28.2 nM; in the assay on A2780 ovarian cells [4] it was 6920 nM. Moreover, the inhibition at 10 µM in assay [1] came to 100%.
On the same counts, the results for `Cc1ccc(C(=O)N2CCC(c3ccc(-c4cnn(C)c4)cc3)CC2)cc1NC(=O)c1ccncc1F` [Compound 161, 3-fluoro-N-(2-methyl-5-(4-(4-(1-methyl-1H-pyrazol-4-yl)phenyl)piperidine-1-carbonyl)phenyl)isonicotinamide] are 21.4 nM, 38.9 nM, 24 nM, 3720 nM and 101%.
The like results for `Cc1ccc(C(=O)N2CCC(c3ccc(-c4cnn(C)c4)cc3)CC2)cc1NC(=O)c1cnc(NC2CCC2)nc1` [Compound 162, 2-(cyclobutylamino)-N-(2-methyl-5-(4-(4-(1-methyl-1H-pyrazol-4-yl)phenyl)piperidine-1-carbonyl)phenyl)pyrimidine-5-carboxamide] were, in that order, 20 nM, 32.4 nM, 8.13 nM, ~7590 nM and 101%.
The like results for `Cc1ccc(C(=O)N2CCC(c3ccc(-c4cnn(C)c4)cc3)CC2)cc1NC(=O)c1ccc(N2CCN[C@@H](CO)C2)nc1` [Compound 163, (3R)-6-(3-(hydroxymethyl)piperazin-1-yl)-N-(2-methyl-5-(4-(4-(1-methyl-1H-Pyrazol-4-yl)phenyl)piperidine-1-carbonyl)phenyl)nicotinamide] were, in that order, 28.8 nM, 46.8 nM, 13.2 nM, > 10000 nM and 105%.
Regarding `CCN1CCC(C(=O)Nc2cc(C(=O)N3CCC(c4ccc(-c5cnn(C)c5)cc4)CC3)ccc2C)CC1` [Compound 168, 1-ethyl-N-(2-methyl-5-(4-(4-(1-methyl-1H-pyrazol-4-yl)phenyl)piperidine-1-carbonyl)phenyl)piperidine-4-carboxamide], the IC50 in assay [1] was 61.7 nM; in assay [2], 126 nM; in the assay on A2780 ovarian cells [3], 72.4 nM; in the assay on A2780 ovarian cells [4] it was > 10000 nM. In addition, the inhibition at 10 µM in assay [1] amounted to 113%.
On the same counts, the results for `Cc1ccc(C(=O)N2CCC(c3ccc(-c4cnn(C)c4)cc3)CC2)cc1NC(=O)C1CCN(C)CC1` [Compound 169, 1-methyl-N-(2-methyl-5-(4-(4-(1-methyl-1H-pyrazol-4-yl)phenyl)piperidine-1-carbonyl)phenyl)piperidine-4-carboxamide] are 70.8 nM, 191 nM, 77.6 nM, > 10000 nM and 106%.
Regarding `Cc1ccc(C(=O)N2CCC(c3ccc(-c4cnn(C)c4)cc3)CC2)cc1NC(=O)C1CCNC1` (stereo not shown) [Compound 170, N-(2-methyl-5-(4-(4-(1-methyl-1H-pyrazol-4-yl)phenyl)piperidine-1-carbonyl)phenyl)pyrrolidine-3-carboxamide], the IC50 was 57.5 nM in assay [1], 339 nM in assay [2], 302 nM in the assay on A2780 ovarian cells [3] and > 10000 nM with A2780 ovarian cells [4]. In addition, the inhibition at 10 µM in assay [1] amounted to 112%.
The like results for `Cc1ccc(C(=O)N2CCC(c3ccc(-c4cnn(C)c4)cc3)CC2)cc1NC(=O)[C@@H]1CCCN1` [Compound 171, (S)—N-(2-methyl-5-(4-(4-(1-methyl-1H-pyrazol-4-yl)phenyl)piperidine-1-carbonyl)phenyl)pyrrolidine-2-carboxamide] were, in that order, 891 nM, 1000 nM, 1200 nM, > 10000 nM and 84%.
The like results for `Cc1ccc(C(=O)N2CCC(c3ccc(-c4cnn(C)c4)cc3)CC2)cc1NC(=O)[C@H]1CCCN1` [Compound 172, (R)—N-(2-methyl-5-(4-(4-(1-methyl-1H-pyrazol-4-yl)phenyl)piperidine-1-carbonyl)phenyl)pyrrolidine-2-carboxamide] were, in that order, 490 nM, 741 nM, 794 nM, > 10000 nM and 91%.
